Assay results taken from patent US20160136109A1, “COMPOSITIONS FOR TISSUE STABILIZATION” (Vatrix Medical, Inc., priority 2008, published 2016).

Tests used:
[1] = test system: porcine carotid arteries exposed to porcine pancreatic elastase; experiment: Tissue resistance to elastase degradation after treatment; type: biochemical; conditions: 0.6% Glut, 0.15% PGG, 20 minutes total treatment (cocktail 20 min or 10 min + 10 min sequential); elastase 3 units/mL 24 hrs 37° C.; compared to saline controls
Protocol: This example involves model results based on in vitro treatment of tissue samples for period of time that are realistic for in vivo applications. Specifically, tissue resistance to elastase degradation after treatment with various reagents is discussed. Specifically, porcine carotid arteries were treated with saline (control, for 20 minutes), Glut (for 20 minutes), PGG (for 20 minutes), or a combination of the two (Glut+PGG for 20 minutes, or Glut for 10 minutes followed by a separate incubation with PGG for 10 minutes). Concentrations of the reagents used were 0.6% (w/v) for Glut, 0.15% (w/v) for PGG and 9 g/L for physiological saline.
The treated tissue was then exposed to an in vitro elastase digestion assay to subject the treated tissue to digestion for 24 hrs. Briefly, tissue samples were incubated individually with 1 mL of 3 units/mL porcine pancreatic elastase (Elastin Products Company; Owensville, Mo.) dissolved in 100 mM Tris buffer, 1 mM CaCl2, 0.02% NaN3, pH 7.8. Incubation with the elastase was conducted for 24 hrs at 37° C. with orbital shaking at 500 rpm. Because the values shown are percentage of digestion, the lower the value, the better the reagent used performed in resisting elastase degradation. […] It should be noted that the digestion model used in this experiment is a very accelerated and aggressive digestion model.

[2] = test system: porcine aortic wall exposed to type I collagenase; experiment: Tissue resistance to collagenase degradation after treatment; type: biochemical; conditions: type I collagenase 150 U/mL, 24 hours, 37° C.; fresh sample over 85% digested
Protocol: Tissue resistance to collagenase degradation after treatment with various reagents is discussed. Specifically, samples of porcine aortic wall were either left untreated (fresh) or treated with Glut alone or Glut followed by tannic acid (TA). Glut treatment was performed with 0.6% (w/v) Glut for 1 day, and then 0.2% (w/v) Glut for 7 days at room temperature; Glut/TA treatment was performed with 0.6% (w/v) Glut for 1 day, and then 0.2% (w/v) Glut for 7 days at room temperature followed by 0.15% (w/v) TA for 4 days at 37° C. The treated samples were rinsed 3 times (1 hour each) in 100 mL water, and lyophilized to record dry weight. Samples with the amount of ˜15 to 25 mg dry weight were immersed in 1.2 mL of type I collagenase (150 U/mL) dissolved in 50 mM Tris buffer, 10 mM CaCl2, pH 7.4, and incubated at 37° C. with orbital shaking at 650 rpm for 24 hours. Following this exposure to collagenase, samples were centrifuged (10000 rpm, 10 minutes, 4° C.), individually rinsed three times in 1 mL water, lyophilized to obtain dry weight after collagenase, and the percent of digested tissue was calculated.
The percentage of tissue digestion was compared in graphical format in FIG. 4.

[3] = collagen crosslinking/stabilization; cited from earlier work

| Compound | percentage digestion by elastase (resistance to degradation) [1] | percent of digested tissue (mass loss) [2] | toxicity [3] |
| --- | --- | --- | --- |
| O=CCCCC=O [Glut, Glutaraldehyde] | slightly improved the resistance of the tissue to degradation | over 20% |  |
| COC(=O)C1=CO[C@@H](O)[C@@H]2C(CO)=CC[C@H]12 [genipin, Genipin] |  |  | relatively non-toxic |
